Converted amounts (≈) assume the structure as drawn.
Columns and labels:
Format in all cases: functional
Escherichia coli [1] = assay: Antibacterial activity against Escherichia coli ATCC 25922 assessed as inhibition of bacterial growth incubated for 24 hrs by optical density based analysis
Staphylococcus aureus [2] = assay: Antibacterial activity against Staphylococcus aureus ATCC 25923 assessed as inhibition of bacterial growth incubated for 24 hrs by optical density based analysis
[3] = test system: Staphylococcus epidermidis; assay: Antibacterial activity against Staphylococcus epidermidis ATCC 51625 assessed as inhibition of bacterial growth incubated for 24 hrs by optical density based analysis
Bacillus subtilis = assay: Antibacterial activity against Bacillus subtilis ATCC 11774 assessed as inhibition of bacterial growth incubated for 24 hrs by optical density based analysis
Escherichia coli [4] = assay: Antibacterial activity against Escherichia coli assessed as inhibition of bacterial growth incubated for 18 hrs by p-iodonitrotetrazolium chloride dye based colorimetric assay
Klebsiella aerogenes = assay: Antibacterial activity against Enterobacter aerogenes assessed as inhibition of bacterial growth incubated for 18 hrs by p-iodonitrotetrazolium chloride dye based colorimetric assay
Klebsiella pneumoniae = assay: Antibacterial activity against Klebsiella pneumoniae assessed as inhibition of bacterial growth incubated for 18 hrs by p-iodonitrotetrazolium chloride dye based colorimetric assay
Providencia stuartii = assay: Antibacterial activity against Providencia stuartii assessed as inhibition of bacterial growth incubated for 18 hrs by p-iodonitrotetrazolium chloride dye based colorimetric assay
Enterobacter cloacae = assay: Antibacterial activity against Enterobacter cloacae assessed as inhibition of bacterial growth incubated for 18 hrs by p-iodonitrotetrazolium chloride dye based colorimetric assay
Pseudomonas aeruginosa = assay: Antibacterial activity against Pseudomonas aeruginosa assessed as inhibition of bacterial growth incubated for 18 hrs by p-iodonitrotetrazolium chloride dye based colorimetric assay
Staphylococcus aureus [5] = assay: Antibacterial activity against Staphylococcus aureus assessed as inhibition of bacterial growth

Compound | MIC (Escherichia coli [4]) [µg/mL] | MIC (Klebsiella aerogenes) [µg/mL] | MIC (Klebsiella pneumoniae) [µg/mL] | MIC (Providencia stuartii) [µg/mL] | MIC (Enterobacter cloacae) [µg/mL] | MIC (Pseudomonas aeruginosa) [µg/mL] | MIC (Staphylococcus aureus [5]) [µg/mL] | MIC (Escherichia coli [1]) [µg/mL] | MIC (Staphylococcus aureus [2]) [µg/mL] | MIC [3] [µg/mL] | MIC (Bacillus subtilis) [µg/mL]
NC[C@H]1O[C@H](O[C@H]2[C@H](O)[C@@H](O[C@H]3O[C@H](CO)[C@@H](O)[C@H](N)[C@H]3O)[C@H](N)C[C@@H]2N)[C@H](O)[C@@H](O)[C@@H]1O [KANAMYCIN] |  |  |  |  |  |  |  | 16 (≈ 33 µM) | 4 (≈ 8.26 µM) | 1 (≈ 2.06 µM) | 2 (≈ 4.13 µM)
CC(C)=CCc1c(-c2ccc(O)cc2O)oc2cc3c(c(O)c2c1=O)C=CC(C)(C)O3 [CUDRAFLAVONE B] |  |  |  |  |  |  |  | > 128 | 4 (≈ 9.51 µM) | 16 (≈ 38.1 µM) | 16 (≈ 38.1 µM)
CC1(C)S[C@@H]2[C@H](NC(=O)[C@H](N)c3ccccc3)C(=O)N2[C@H]1C(=O)O [AMPICILLIN] |  |  |  |  |  |  |  | 64 (≈ 183 µM) | 4 (≈ 11.4 µM) | 128 (≈ 366 µM) | > 128
CC(C)=CCc1c(-c2ccc(O)cc2O)oc2c3c(cc(O)c2c1=O)OC(C)(C)C=C3 [MORUSIN] |  |  |  |  |  |  |  | > 128 | 8 (≈ 19 µM) | 8 (≈ 19 µM) | 16 (≈ 38.1 µM)

Now from value to compound, other results behind:

MIC (Escherichia coli [4]) [µg/mL] | MIC (Klebsiella aerogenes) [µg/mL] | MIC (Klebsiella pneumoniae) [µg/mL] | MIC (Providencia stuartii) [µg/mL] | MIC (Enterobacter cloacae) [µg/mL] | MIC (Pseudomonas aeruginosa) [µg/mL] | MIC (Staphylococcus aureus [5]) [µg/mL] | Compound | MIC (Escherichia coli [1]) [µg/mL] | MIC (Staphylococcus aureus [2]) [µg/mL] | MIC [3] [µg/mL] | MIC (Bacillus subtilis) [µg/mL]
4 (≈ 9.16 µM) | 4 (≈ 9.16 µM) | 4 (≈ 9.16 µM) | 4 (≈ 9.16 µM) | 4 (≈ 9.16 µM) | 4 (≈ 9.16 µM) |  | CC1(C)C=Cc2c(cc(O)c3c(=O)c4c(oc23)-c2ccc(O)cc2OC(C(C)(C)O)C4)O1 (stereo unspecified) [NEOCYCLOMORUSIN] | > 128 | 64 (≈ 147 µM) | > 128 | 64 (≈ 147 µM)
 |  |  |  |  |  | 128 (≈ 333 µM) | COc1cc(O)c2c(=O)c3c(oc2c1)-c1ccc(O)cc1OC(C(C)(C)O)C3 (stereo unspecified) | > 128 | 128 (≈ 333 µM) | > 128 | > 128
